Experimental data: PubChem BioAssay AID248 (DTP/NCI, 2004)
Inconclusive results and toxic doses are left out. Rule as the data show it: active = T/C of 150% or more; inactive = T/C below 125%.

System: L1210 leukemia ip in BDF1 mice, survival T/C
Experiment: NCI In Vivo Anticancer Drug Screen. Data for tumor model L1210 Leukemia (intraperitoneal) in B6D2F1 (BDF1) mice
Conditions: endpoint: mean survival time, higher = longer survival
How it was run: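 Transplanted-tumor mice were given test agent; controls received vehicle only. Survival readings from the two groups were divided (treated over control).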

[1] = dose: 100.0 mg/kg/injection, schedule: Q01DX001 (ip), vehicle: Klucel (hydroxypropylcellulose) (HPC)
[2] = dose: 200.0 mg/kg/injection, schedule: Q01DX001 (ip), vehicle: Klucel (hydroxypropylcellulose) (HPC)
[3] = dose: 100.0 mg/kg/injection, schedule: Q01DX001 (ip), vehicle: saline
[4] = dose: 200.0 mg/kg/injection, schedule: Q04DX003 (ip), vehicle: saline
[5] = dose: 100.0 mg/kg/injection, schedule: Q04DX003 (ip), vehicle: Klucel (hydroxypropylcellulose) (HPC)
[6] = dose: 200.0 mg/kg/injection, schedule: Q04DX003 (ip), vehicle: Klucel (hydroxypropylcellulose) (HPC)
[7] = dose: 400.0 mg/kg/injection, schedule: Q04DX003 (ip), vehicle: Klucel (hydroxypropylcellulose) (HPC)
[8] = dose: 100.0 mg/kg/injection, schedule: Q01DX009 (ip), vehicle: Klucel (hydroxypropylcellulose) (HPC)
[9] = dose: 200.0 mg/kg/injection, schedule: Q01DX009 (ip), vehicle: Klucel (hydroxypropylcellulose) (HPC)
[10] = dose: 100.0 mg/kg/injection, schedule: Q01DX009 (ip), vehicle: saline
[11] = dose: 50.0 mg/kg/injection, schedule: Q01DX009 (ip), vehicle: Klucel (hydroxypropylcellulose) (HPC)
[12] = dose: 100.0 mg/kg/injection, schedule: Q01DX001 (ip), vehicle: carboxymethylcellulose (CMC)
[13] = dose: 400.0 mg/kg/injection, schedule: Q01DX001 (ip), vehicle: carboxymethylcellulose (CMC)

Measured: T/C

CCOCCOCCOC(C)Oc1ccc(Br)cc1 (centres undefined)
inactive: dose: 100.0 mg/kg/injection, schedule: Q04DX002 (ip), vehicle: saline 103 % of control | dose: 200.0 mg/kg/injection, schedule: Q04DX002 (ip), vehicle: saline 103 % of control | dose: 400.0 mg/kg/injection, schedule: Q04DX002 (ip), vehicle: saline 100 % of control

CC1(NC(=O)N(CCCl)N=O)CCCC1
active: dose: 62.0 mg/kg/injection, schedule: Q01DX001 (ip), vehicle: carboxymethylcellulose (CMC) 157 % of control | dose: 125.0 mg/kg/injection, schedule: Q01DX001 (ip), vehicle: carboxymethylcellulose (CMC) 282 % of control | dose: 250.0 mg/kg/injection, schedule: Q01DX001 (ip), vehicle: carboxymethylcellulose (CMC) 329 % of control
inactive: dose: 16.0 mg/kg/injection, schedule: Q01DX001 (ip), vehicle: carboxymethylcellulose (CMC) 95 % of control | dose: 31.0 mg/kg/injection, schedule: Q01DX001 (ip), vehicle: carboxymethylcellulose (CMC) 113 % of control

COC(=O)c1cccc(OC)c1-c1c(OC)cccc1C(=O)OC
inactive: [1] 105 % of control | [2] 103 % of control | dose: 400.0 mg/kg/injection, schedule: Q01DX001 (ip), vehicle: Klucel (hydroxypropylcellulose) (HPC) 102 % of control

Cc1cc(C)c(C(=O)OC(c2ccccc2)C(c2ccccc2)N2CCOCC2)c(C)c1 (centres undefined)
inactive: dose: 75.0 mg/kg/injection, schedule: Q01DX001 (ip), vehicle: saline 96 % of control | dose: 150.0 mg/kg/injection, schedule: Q01DX001 (ip), vehicle: saline 97 % of control | dose: 300.0 mg/kg/injection, schedule: Q01DX001 (ip), vehicle: saline 86 % of control

CCN(CC)c1ccc(SC#N)cc1
inactive: [3] 101 % of control

CCCN1CCCN(CCC)C1=O
inactive: dose: 50.0 mg/kg/injection, schedule: Q04DX002 (ip), vehicle: Klucel (hydroxypropylcellulose) (HPC) 102 % of control | dose: 100.0 mg/kg/injection, schedule: Q04DX002 (ip), vehicle: Klucel (hydroxypropylcellulose) (HPC) 102 % of control | dose: 200.0 mg/kg/injection, schedule: Q04DX002 (ip), vehicle: Klucel (hydroxypropylcellulose) (HPC) 93 % of control

CC(=O)Nc1nc[nH]c1C(N)=O
inactive: dose: 100.0 mg/kg/injection, schedule: Q01DX001 (ip), vehicle: saline with Tween-80 106 % of control | dose: 200.0 mg/kg/injection, schedule: Q01DX001 (ip), vehicle: saline with Tween-80 105 % of control | dose: 400.0 mg/kg/injection, schedule: Q01DX001 (ip), vehicle: saline with Tween-80 100 % of control

CC(=O)NC(C=O)CC(C=O)CO (centres undefined)
inactive: [4] 110 % of control | dose: 300.0 mg/kg/injection, schedule: Q04DX003 (ip), vehicle: saline 113 % of control

[CH3][Pb]([CH3])([CH3])[I]
inactive: [5] 103 % of control | [6] 98 % of control | [7] 94 % of control

NC(C(=O)O)c1cc(Cl)co1 (centres undefined)
inactive: [5] 105 % of control | [6] 105 % of control | [7] 101 % of control

COc1ccc(Br)cc1C1(O)C2C=CC1CC2 (centres undefined)
inactive: [8] 102 % of control | [9] 102 % of control | dose: 400.0 mg/kg/injection, schedule: Q01DX009 (ip), vehicle: Klucel (hydroxypropylcellulose) (HPC) 98 % of control

CCCCCCC(Cl)CCl (centres undefined)
inactive: dose: 50.0 mg/kg/injection, schedule: Q01DX009 (ip), vehicle: saline 97 % of control | [10] 110 % of control | dose: 100.0 mg/kg/injection, schedule: Q04DX003 (ip), vehicle: saline 103 % of control | [4] 115 % of control | dose: 400.0 mg/kg/injection, schedule: Q04DX003 (ip), vehicle: saline 108 % of control

CC1NNC(=O)C1c1ccc([N+](=O)[O-])cc1 (centres undefined)
inactive: [3] 94 % of control | dose: 200.0 mg/kg/injection, schedule: Q01DX001 (ip), vehicle: saline 94 % of control | dose: 400.0 mg/kg/injection, schedule: Q01DX001 (ip), vehicle: saline 95 % of control

CCCCOC(=O)/C=C\C(=O)NC(N)=O
inactive: dose: 31.0 mg/kg/injection, schedule: Q01DX Z (ip), vehicle: methylcellulose (MC) 98 % of control | dose: 51.0 mg/kg/injection, schedule: Q01DX Z (ip), vehicle: methylcellulose (MC) 101 % of control

Cc1ccc(-n2c(=O)c(N=Nc3ccccc3C)c(O)n(-c3ccccc3Cl)c2=S)cc1
inactive: dose: 50.0 mg/kg/injection, schedule: Q01DX001 (ip), vehicle: Klucel (hydroxypropylcellulose) (HPC) 104 % of control | [1] 94 % of control | [2] 98 % of control

OCCNC1c2ccccc2-c2ccccc21
inactive: [11] 100 % of control | [8] 118 % of control | [5] 102 % of control | [9] 99 % of control | [6] 107 % of control

CN(C)C(=O)C1(c2ccc(Cl)cc2)CCN(CCCC(=O)c2ccc(F)cc2)CC1
inactive: dose: 12.5 mg/kg/injection, schedule: Q01DX009 (ip), vehicle: Klucel (hydroxypropylcellulose) (HPC) 94 % of control | dose: 25.0 mg/kg/injection, schedule: Q01DX009 (ip), vehicle: Klucel (hydroxypropylcellulose) (HPC) 94 % of control | dose: 25.0 mg/kg/injection, schedule: Q04DX003 (ip), vehicle: Klucel (hydroxypropylcellulose) (HPC) 121 % of control | [11] 100 % of control | dose: 50.0 mg/kg/injection, schedule: Q04DX003 (ip), vehicle: Klucel (hydroxypropylcellulose) (HPC) 106 % of control | [8] 111 % of control | [5] 116 % of control | [9] 96 % of control | [6] 116 % of control

Nc1ccc2c(c1)/C(=N/O)c1cc(Cl)ccc1-2
inactive: [12] 109 % of control | dose: 200.0 mg/kg/injection, schedule: Q01DX001 (ip), vehicle: carboxymethylcellulose (CMC) 103 % of control | [13] 100 % of control

c1ccc(C([CH2][Hg][CH2]C(c2ccccc2)c2ccccc2)c2ccccc2)cc1
inactive: [10] 101 % of control | [5] 97 % of control | dose: 200.0 mg/kg/injection, schedule: Q01DX009 (ip), vehicle: saline 96 % of control | [6] 93 % of control | dose: 400.0 mg/kg/injection, schedule: Q01DX009 (ip), vehicle: saline 101 % of control | [7] 90 % of control

CCOC(=O)C(Cc1ccc(N(CCCl)CCCl)cc1)NP1(=O)NCCCO1 (centres undefined)
inactive: dose: 2.0 mg/kg/injection, schedule: Q01DX015 (ip), vehicle: carboxymethylcellulose (CMC) 123 % of control | dose: 14.0 mg/kg/injection, schedule: Q01DX015 (ip), vehicle: carboxymethylcellulose (CMC) 92 % of control | dose: 28.14 mg/kg/injection, schedule: Q01DX015 (ip), vehicle: carboxymethylcellulose (CMC) 117 % of control | dose: 48.0 mg/kg/injection, schedule: Q01DX015 (ip), vehicle: carboxymethylcellulose (CMC) 94 % of control | dose: 50.0 mg/kg/injection, schedule: Q01DX015 (ip), vehicle: other 109 % of control | [12] 111 % of control | [13] 115 % of control
active: dose: 18.0 mg/kg/injection, schedule: Q01DX015 (ip), vehicle: other 167 % of control | dose: 30.0 mg/kg/injection, schedule: Q01DX015 (ip), vehicle: other 156 % of control | dose: 100.0 mg/kg/injection, schedule: Q01DX001 (ip), vehicle: other 160 % of control

O=C(Nc1cccc(C(F)(F)F)c1)c1ccc(Cl)c(Cl)c1
inactive: dose: 100.0 mg/kg/injection, schedule: Q01DX009 (ip), vehicle: gum acacia 108 % of control | dose: 100.0 mg/kg/injection, schedule: Q04DX003 (ip), vehicle: gum acacia 100 % of control | dose: 200.0 mg/kg/injection, schedule: Q04DX003 (ip), vehicle: gum acacia 100 % of control | dose: 400.0 mg/kg/injection, schedule: Q01DX009 (ip), vehicle: gum acacia 96 % of control | dose: 400.0 mg/kg/injection, schedule: Q04DX003 (ip), vehicle: gum acacia 95 % of control

Oc1c(CN2CCCC2)cc(Nc2cc(/C=C/c3ccc(Cl)cc3)nc(/C=C\c3ccc(Cl)cc3)n2)cc1CN1CCCC1
inactive: dose: 1.0 mg/kg/injection, schedule: Q01DX009 (ip), vehicle: Klucel (hydroxypropylcellulose) (HPC) 110 % of control | dose: 3.0 mg/kg/injection, schedule: Q01DX009 (ip), vehicle: Klucel (hydroxypropylcellulose) (HPC) 98 % of control | dose: 6.0 mg/kg/injection, schedule: Q01DX009 (ip), vehicle: Klucel (hydroxypropylcellulose) (HPC) 101 % of control | dose: 12.0 mg/kg/injection, schedule: Q01DX009 (ip), vehicle: Klucel (hydroxypropylcellulose) (HPC) 91 % of control | dose: 12.0 mg/kg/injection, schedule: Q04DX003 (ip), vehicle: saline 88 % of control | dose: 50.0 mg/kg/injection, schedule: Q04DX003 (ip), vehicle: saline 88 % of control
